# From US8609417B2, “Methods and compositions for stem cell cultures” (The Regents of the University of California, priority 2009, dated 2013)
# Entries after “also recorded” stand apart in the source; their conditions may differ.
# Experiments:
# hiPS cells [1] = test: Cell viability assay under adherence conditions (trypan blue live cell counting); type: cell-based, human
# Protocol: hES or hiPS cells were plated at 1×10^5 cells/well on 12-well plates coated with PDL or Matrigel in mTeSR in the presence or absence of blebbistatin or Y-27632 at various concentrations in triplicates. DMSO (solvent for blebbistatin) was also added in the control condition and found to have no effect on viability. For mES cells, cells were plated under the same condition except for the use of gelatin coating and mES medium. After 24 h, cells were harvested, trypsinized to single cells, and counted by hemocytometer. Cell counting was performed independently by two researchers to confirm the consistency. The same samples were used for TUNEL assay immediately after taking a small fraction of the sample for cell counting.
# hiPS cells [2] = test: Cell viability under suspension culture; type: cell-based, human; details: hPS cells in suspension, 2 days, various concentrations
# Protocol: For the evaluation of cell viability under suspension culture, hES or hiPS cells were plated at 5×10^5 in non-tissue culture-treated 6-well plates with non-conditioned standard hESm containing blebbistatin or Y-27632 at different concentrations in triplicates. After 2 days, cells were harvested with trypsinization and extensive trituration by pipetting, and the number of live cells was manually counted by using hemocytometer and trypan blue staining. The cell survival ratio (%) represents the ratio of the number of live cells to the number of cells plated. The same samples were subjected to TUNEL assay for side by side comparison with the data from cell viability assay.
# hiPS cells [3] = test: Cell growth assay (population doubling time); type: cell-based, human; details: hiPS cells on PDL in mTeSR, compound at 5 μM
# Protocol: For the cell growth assay, hiPS or hES cells were plated at 2.5×10^4 cells/cm^2 on plates coated with PDL or Matrigel in mTeSR in the presence of blebbistatin at 5 μM or Y-27632 at 5 μM (PDL) or in the absence of compounds (Matrigel). Cells were harvested at the indicated time points, stained with trypan blue, and counted by the hemocytometer.
# hES cells = test: Cell-cell contact of hES cells (morphology, cell contact index); type: cell-based, human; details: hES cells grown on Matrigel
# Protocol: Rock and myosin II regulate cell-cell interactions in hES cells. To test whether the observed function of RRM signaling in cell-cell contacts in mES cells is conserved in hES cells, H1 cells grown under the feeder-free condition with Matrigel™ and conditioned medium (CM) (FIG. 3A) were treated with C3 exoenzyme. […] Rock-inhibitor treatment also led to cell adhesion defects although it required a higher concentration (20 μM) than that (10 μM) for mES cells (FIG. 3C). Myosin IIA and IIB were colocalized with cell-cell borders in hES cells, which indicates their potential role in cell-cell adhesions (FIG. 3D).
# mES cells = test: Cell-cell contact of mES cells (morphology, cell contact index); type: cell-based, mouse
# From the text: Rho and Rho-associated kinase (Rock) play a role in regulation of cell-cell interactions in pluripotent stem cells. In order to further explore the core mechanism underlying cell-cell adhesions, principle regulators downstream of Rock were examined. Based on functional prescreening non-muscle myosin II was identified as an effector by siRNA-mediated loss of function analysis. Non-muscle Myosin II (myosin II), the two-headed conventional myosin, consists of non-muscle myosin II heavy chain (NMHC) dimers and two sets of myosin light chains (MLCs). […] Among them, all the genes except IIC are expressed in pluripotent stem cells whereas differentiated cells express all three isoforms. […] The specificity and levels of knockdown of the target genes by each siRNA were confirmed by quantitative RT-PCR (QPCR) (FIG. 2). Myosin phosphatase target subunit 1 (MYPT1), a major downstream target of Rock that negatively regulates myosin function through […] of myosin regulatory light chain (MRLC) was examined. MYPT1 was exclusively localized to cell-cell contact sites in mES cells (FIG. 1B). If Rock controls the myosin function through inhibition of MYPT1, depletion of MYPT1 would rescue the intrinsic cell-cell interactions from the robust effect of Y27632 (FIG. 1C).
SMILES,"Effect on cell survival (hiPS cells [1]; hiPS cells on PDL-coated dishes, different concentrations)",Effect on survival in suspension culture (hiPS cells [2]),"Number of viable cells (hiPS cells [1]; hiPS cells on PDL, 10 μM, 24 h after plating 1×10^5 cells/well, n=3)",Population doubling time (hiPS cells [3]) [h],Concentration that disassembled cell-cell junctions (hES cells) [µM],Concentration that disassembled cell-cell junctions (mES cells) [µM]
O=S(=O)(c1cccc2c(I)cccc12)N1CCCNCC1 [ML-7],No significant increase in cell survival,did not show a significant effect on survival; also recorded: No difference in the survival rate,–,–,–,–
C[C@@H](N)[C@H]1CC[C@H](C(=O)Nc2ccncc2)CC1 [Y-27632],–,–,7.2±1.1×10^4 cells,~32.2,20,10
